Test results: US5705336A, “Assay for sensitivity of tumors to DNA-platinating chemotherapy” (The United States of America as represented by the …, priority 1995, dated 1998)

Tests used:
H9 [1] = test: inhibition of growth of H9 cells, 3 day continuous cisplatin exposure; type: cell-based, human; settings: continuous exposure to cisplatin for 3 days, 50% reduction in cell number
Procedure: (§1) The expression of total ERCC1 mRNA, exon VIII^- mRNA and XPA mRNA was examined in three human T lymphocyte cell lines (HuT 78, H9 and MOLT-4), using essentially the methods described in Example 1. The cells were obtained from the American Type Culture Collection, Rockville, Md. Cells were cultured in RPMI-1640 medium supplemented with 10% heat-inactivated calf serum, 100 μg/ml penicillin, 100 μg/ml streptomycin and 2 mM glutamine.
(§2) All cell lines were assayed for sensitivity to cisplatin by measurement of the inhibition of growth following 3 day cisplatin exposures ranging from 0.5 to 100 μM. Cell lines were seeded at an initial cell density of 5×10^4 cells/ml, After continuous contact with drug for 3 days, cell counts obtained by Coulter counter were expressed as a percentage of counts obtained from aliquots of control cells, cultured in the absence of drug. Cells treated similarly but for the absence of drug served as controls. IC50 values were assessed as those drug levels effecting a 50% reduction in cell number as compared to Untreated cells.

HuT 78 [2] = settings: removed in 6 hrs following a 1 hr, 10 μM exposure, taken from ref. 26; cited from earlier work
MOLT-4 [3] = test: inhibition of growth of MOLT-4 cells, 3 day continuous cisplatin exposure; type: cell-based, human; settings: continuous exposure to cisplatin for 3 days, 50% reduction in cell number
Procedure: as §1, §2

HuT 78 [4] = settings: platination level that reduces CAT activity to 37% of control, taken from ref. 26; cited from earlier work
H9 [5] = settings: platination level that reduces CAT activity to 37% of control, taken from ref. 26; cited from earlier work
[6] = tested on: three human T lymphocyte cell lines (HuT 78, H9 and MOLT-4); test: cisplatin sensitivity compared across the three T cell lines; type: cell-based; settings: across HuT 78, H9 and MOLT-4
Procedure: as §1, §2

H9 [7] = settings: removed in 6 hrs following a 1 hr, 10 μM exposure, taken from ref. 26; cited from earlier work
MOLT-4 [8] = settings: platination level that reduces CAT activity to 37% of control, taken from ref. 26; cited from earlier work
MOLT-4 [9] = settings: removed in 6 hrs following a 1 hr, 10 μM exposure, taken from ref. 26; cited from earlier work
HuT 78 [10] = test: inhibition of growth of HuT 78 cells, 3 day continuous cisplatin exposure; type: cell-based, human; settings: continuous exposure to cisplatin for 3 days, 50% reduction in cell number
Procedure: as §1, §2

In the case of `N.N.[Cl][Pt][Cl]` [cisplatin], the IC50 (H9 [1]) is given as 0.45 µM, the “Cellular DNA Repair (pg Pt/μg DNA removed in 6 hrs)” value (shortened to “Cellular DNA Repair”) (HuT 78 [2]) is given as 5.6 pg Pt/μg DNA and the IC50 (MOLT-4 [3]) is given as 0.33 µM. The “Reactivation of platinated plasmid Bo” value (HuT 78 [4]) was 22 adducts/plasmid, the “Reactivation of platinated plasmid Bo” value (H9 [5]) was 18 adducts/plasmid and the “cisplatin sensitivity varied by” value [6] was “about 3 fold”. The “Cellular DNA Repair” value (H9 [7]) was 3.9 pg Pt/μg DNA, the “Reactivation of platinated plasmid Bo” value (MOLT-4 [8]) was 13 adducts/plasmid and the “Cellular DNA Repair” value (MOLT-4 [9]) was 2.3 pg Pt/μg DNA. It also gave an IC50 (HuT 78 [10]) of 0.83 µM.
